Laboratory results from PMC7160333, “Physiological Role of Glutamate Dehydrogenase in Cancer Cells” (Frontiers in Oncology, 2020).
Read-outs that look alike come from different tables or passages of the source.

Legend:
HeLa MCTS = assay: HeLa multicellular tumor spheroid (MCTS) growth with ammonium; assay type: cell-based, human
Description: (§1) After 5 days, the culture medium was refreshed, and the MCTSs formed were placed under slow orbital shaking (20–50 rpm) at 37°C and 95% air/5% CO2. […] The spheroid growth was determined at the indicated times by measuring MCTS diameter with a calibrated reticule (1/10 mm) in an inverted phase contrast microscope (Zeiss, Thornwood, NY, USA) ([86]).

MDA-MB-231 MCTS = assay: MDA-MB-231 multicellular tumor spheroid (MCTS) growth with ammonium; assay type: cell-based, human
Description: as §1

MCF-7 cells [1] = settings: for Duplication time: MCF-7, 2-D culture, n = 3; for Maximal cellular densities: reached at day 6
Description: (§3) All cancer and non-cancer cell lines used were purchased from ATCC and cultured in DMEM (Sigma-Aldrich) supplemented with 10% fetal bovine serum (Biowest, Nuaillé, France) and 10,000 U penicillin/streptomycin (Sigma-Aldrich) and placed under a humidified atmosphere of 5% CO2/95% air at 37°C.
(§4) Cell growth was followed by counting cellular density every 24 h during 7 to 8 days. […] The duplication time was determined by using the following equation: n=1/[3.32(logNF-logNI)]/(tF-tI) , where NF represents the number of cultured cells at the end of the exponential growth phase; NI represents the number of cells at the beginning of the growth curve; tF is the final time at which cells were harvested, and tI is the initial culture time. The specific growth rate μ was calculated from the slope of a semilogarithmic plot of cell densities in the exponential growth phase vs. time ([88]).

HFF-1 fibroblasts = settings: for Duplication time: HFF-1, 2-D culture, n = 3; for Maximal cellular densities: reached at day 5
Description: as §3, §4

cancer cells = assay: Viability by trypan blue assay in 2-D cultures with ammonium; assay type: cell-based, human; settings: all culture conditions
[2] = test system: total GDH activity (GDH1 + GDH2) in HeLa and MCF-7 cells; settings: 5 mM NH4Cl in culture medium, 5 days, data not shown
PC3 cells = settings: for Maximal cellular densities: reached at day 5
Description: as §3, §4

DU145 cells = settings: for Duplication time: DU145, 2-D culture, n = 3; for Maximal cellular densities: reached at day 5
Description: as §3, §4

SiHa cells = settings: for Duplication time: 2-D culture, n = 3; for Maximal cellular densities: reached at day 6
Description: as §3, §4

MDA-MB-231 cells = settings: for Duplication time: MDA-MB-231, 2-D culture, n = 3
Description: as §3, §4

[3] = test system: recombinant human GDH isoforms (GDH1 and GDH2), bovine liver GDH, Ox brain GDH, dogfish liver GDH, rat brain GDH, and bovine brain GDH isoforms; set-up: method as in PMID 4381532, PMID 7588764, PMID 17924438, PMID 23420347, PMID 7190024; settings: pH range of 7.4–8.7; cited from earlier work
Colo 205 cells = settings: for Duplication time: Colo 205, 2-D culture, n = 3; for Maximal cellular densities: reached at day 6
Description: as §3, §4

MCF-7 cells [4] = test system: MCF-7 cells; set-up: method as in PMID 28303961; settings: MCF-7, ammonium 2–5 mM; cited from earlier work
HCT116 cells = settings: for Duplication time: HCT116, 2-D culture, n = 3; for Maximal cellular densities: reached at day 7
Description: as §3, §4

A549 cells = settings: for Duplication time: A549, 2-D culture, n = 3; for Maximal cellular densities: reached at day 6
Description: as §3, §4

HepM GDH1 = HepM GDH1 (Rattus norvegicus, UniProt P10860); assay: GDH reverse (aminating) reaction activity in hepatoma mitochondria (HepM); assay type: biochemical; settings: HepM; for K0.5 NH4+: reverse reaction, Hill equation; for Km: read-out: Km NH4+
Chain of HepM GDH1 (P10860 54-558): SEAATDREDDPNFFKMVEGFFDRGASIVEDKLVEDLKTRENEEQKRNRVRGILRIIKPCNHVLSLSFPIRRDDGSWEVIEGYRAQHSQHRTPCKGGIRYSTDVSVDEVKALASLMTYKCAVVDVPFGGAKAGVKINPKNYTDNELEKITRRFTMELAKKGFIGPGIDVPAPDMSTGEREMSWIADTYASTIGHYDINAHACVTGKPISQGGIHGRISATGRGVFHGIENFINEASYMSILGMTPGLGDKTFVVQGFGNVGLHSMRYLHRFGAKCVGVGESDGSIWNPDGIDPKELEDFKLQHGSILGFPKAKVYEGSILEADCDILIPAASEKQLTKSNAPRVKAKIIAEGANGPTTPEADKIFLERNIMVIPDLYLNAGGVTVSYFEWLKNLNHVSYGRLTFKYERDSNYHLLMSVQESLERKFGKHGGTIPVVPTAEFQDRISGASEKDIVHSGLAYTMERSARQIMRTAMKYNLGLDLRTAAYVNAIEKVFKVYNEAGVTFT
Description: (§2) Tightly coupled mitochondria were isolated from fed-rat liver (RLM) and AS-30D cells (HepM) as described elsewhere ([89], [90]). […] The resulting mitochondrial fractions were resuspended at 30 to 80 mg protein/mL in SHE buffer with 1 mM PMSF, 1 mM EDTA, 5 mM DTT, and 10% glycerol, and stored at −70°C until use for determination of enzyme activity and Western blotting.

HeLa cells = settings: for Duplication time: 2-D culture, n = 3; for Maximal cellular densities: reached at day 4
Description: as §3, §4

GDH in HepM and RLM = GDH in HepM and RLM (Rattus norvegicus, UniProt P10860); assay: GDH reverse reaction kinetics, summary statements for HepM and RLM; assay type: biochemical
Chain of GDH in HepM and RLM (P10860 54-558): as above
Description: The decrease in the absorbance at 340 nm was followed for several minutes (~10 min) to allow for full development of the pronounced enzyme hysteretic behavior, although the initial signal decrease (1–3 min) was taken to calculate the GDH rates. The protein concentration ranges used for each mitochondrial type were well within the linearity range of enzyme activity. To calculate the kinetic parameters, the experimental data were fitted by non-linear regression analysis to the Hill or MWC equation, using the Microcal Origin 5.0 software (OriginLab, Northampton, MA, USA).

GDH = settings: GDH1, reported values; cited from earlier work
RLM GDH1 = RLM GDH1 (Rattus norvegicus, UniProt P10860); assay: GDH reverse (aminating) reaction activity in rat liver mitochondria (RLM); assay type: biochemical; settings: RLM; for K0.5 NH4+: reverse reaction, Hill equation; for Km: read-out: Km NH4+
Chain of RLM GDH1 (P10860 54-558): as above
Description: as §2

[5] = pH 7.2, MWC equation, GTP inhibition, saturating ADP
[6] = pH 7.5, MWC equation, GTP inhibition, saturating ADP

Cl.N [NH4Cl, Ammonium chloride]
MCTS growth (diameter) (HeLa MCTS; 5 and 10 mM ammonium): inhibited | MCTS growth (diameter) (HeLa MCTS; ammonium supplementation): did not stimulate growth | MCTS growth (diameter) (MDA-MB-231 MCTS; ammonium 10 mM): clearly toxic | MCTS growth (diameter) (MDA-MB-231 MCTS; ammonium 0.5–5 mM): promoted enhanced growth rates | Duplication time (MCF-7 cells [1]; +5 mM NH4Cl): 37 ± 2 h | Duplication time (MCF-7 cells [1]; +10 mM NH4Cl): 45 ± 6 h | Maximal cellular densities (MCF-7 cells [1]; MCF-7, +5 mM NH4Cl): 72 ± 6 ×10^3 | Maximal cellular densities (MCF-7 cells [1]; MCF-7, +10 mM NH4Cl): 76 ± 5 ×10^3 | Duplication time (HFF-1 fibroblasts; +5 mM NH4Cl): 38 ± 12 h | Duplication time (HFF-1 fibroblasts; +10 mM NH4Cl): 55 ± 2 h | Maximal cellular densities (HFF-1 fibroblasts; HFF-1, +5 mM NH4Cl): 60 ± 10 ×10^3 | Maximal cellular densities (HFF-1 fibroblasts; HFF-1, +10 mM NH4Cl): 46 ± 3 ×10^3 | IC50 (HFF-1 fibroblasts; read-out: IC50 for decrease of growth, human HFF-1 fibroblasts, data not shown): ~1000 µM | Viability (cancer cells): higher than 90% | Change of total GDH activity [2]: did not alter the total GDH activity or induced a slight (~20%) decrease | Duplication time (PC3 cells; PC3, 2-D culture, +10 mM NH4Cl, n = 3): 26 ± 1 h | Maximal cellular densities (PC3 cells; PC3, +5 mM NH4Cl): 136 ± 2 ×10^3 | Maximal cellular densities (PC3 cells; PC3, +10 mM NH4Cl): 141 ± 1.4 ×10^3 | Proliferation rates (DU145 cells; DU145, 0.1 and 0.5 mM NH4Cl, data not shown): increased proliferation rates | Duplication time (DU145 cells; +5 mM NH4Cl): 32 ± 2 h | Duplication time (DU145 cells; +10 mM NH4Cl): 35 ± 3 h | Maximal cellular densities (DU145 cells; DU145, +5 mM NH4Cl): 92 ± 6 ×10^3 | Maximal cellular densities (DU145 cells; DU145, +10 mM NH4Cl): 85 ± 4 ×10^3 | Duplication time (SiHa cells; +5 mM NH4Cl): 51 ± 4 h | Duplication time (SiHa cells; +10 mM NH4Cl): 55 ± 5 h | Maximal cellular densities (SiHa cells; +5 mM NH4Cl): 86 ± 7 ×10^3 | Maximal cellular densities (SiHa cells; +10 mM NH4Cl): 82 ± 5 ×10^3 | Duplication time (MDA-MB-231 cells; +5 mM NH4Cl): 26 ± 3 h | Duplication time (MDA-MB-231 cells; +10 mM NH4Cl): 25 ± 1 h | Maximal cellular densities (MDA-MB-231 cells; MDA-MB-231, +5 mM NH4Cl, reached at day 4): 145 ± 13 ×10^3 | Rescue of growth after glutamine removal from the culture medium (MDA-MB-231 cells; MDA-MB-231, NH4Cl 1–10 mM, data not shown): did not rescue their growth | K0.5 NH4+ [3]: 6.5 to 80 mM | Duplication time (Colo 205 cells; +5 mM NH4Cl): 48 ± 2 h | Duplication time (Colo 205 cells; +10 mM NH4Cl): 44 ± 4 h | Maximal cellular densities (Colo 205 cells; Colo 205, +5 mM NH4Cl): 68 ± 6 ×10^3 | Maximal cellular densities (Colo 205 cells; Colo 205, +10 mM NH4Cl): 66 ± 6 ×10^3 | Cell proliferation (MCF-7 cells [4]): only slightly stimulated | Duplication time (HCT116 cells; +5 mM NH4Cl): 45 ± 1 h | Duplication time (HCT116 cells; +10 mM NH4Cl): 39 ± 2 h | Maximal cellular densities (HCT116 cells; HCT116, +5 mM NH4Cl): 76 ± 11 ×10^3 | Maximal cellular densities (HCT116 cells; HCT116, +10 mM NH4Cl): 80 ± 13 ×10^3 | Duplication time (A549 cells; +5 mM NH4Cl): 20 ± 2 h | Duplication time (A549 cells; +10 mM NH4Cl): 17 ± 3 h | Maximal cellular densities (A549 cells; A549, +5 mM NH4Cl): 49 ± 4 ×10^3 | Maximal cellular densities (A549 cells; A549, +10 mM NH4Cl): 56 ± 2 ×10^3 | K0.5 NH4+ (HepM GDH1; pH 7.2, 37°C): 25.2 ± 8 mM | nH (Hill coefficient) for NH4+ (HepM GDH1; pH 7.2, Hill equation): 2.12 ± 0.7 | Km (HepM GDH1; [5]): 12 ± 2.6 mM | Km (HepM GDH1; pH 7.2, MWC equation, with ADP): 11.2 ± 3.5 mM | K0.5 NH4+ (HepM GDH1; pH 7.5, 37°C): 26.8 ± 7.2 mM | nH (Hill coefficient) for NH4+ (HepM GDH1; pH 7.5, Hill equation): 1.5 ± 0.7 | Km (HepM GDH1; [6]): 10.3 ± 2.6 mM | Km (HepM GDH1; pH 7.5, MWC equation, with ADP): 9.3 ± 7.2 mM | Duplication time (HeLa cells; +5 mM NH4Cl): 25.5 ± 2 h | Duplication time (HeLa cells; +10 mM NH4Cl): 24 ± 2 h | Maximal cellular densities (HeLa cells; +5 mM NH4Cl): 153 ± 13 ×10^3 | Maximal cellular densities (HeLa cells; +10 mM NH4Cl): 163 ± 9 ×10^3 | Rescue of growth after glutamine removal from the culture medium (HeLa cells; NH4Cl 1–10 mM, data not shown): did not rescue their growth | K0.5 for NH4+ (GDH in HepM and RLM; Hill equation, HepM and RLM, summary): over 20 mM | Km (GDH in HepM and RLM; MWC equation, pH 7.5, summary of Table 3, read-out: Km for ammonium): ~9 mM | reported K0.5 for ammonium (GDH): 15 to 60 mM | K0.5 NH4+ (RLM GDH1; pH 7.2, 37°C): 23.9 ± 3.7 mM | nH (Hill coefficient) for NH4+ (RLM GDH1; pH 7.2, Hill equation): 1.97 ± 0.8 | Km (RLM GDH1; [5]): 8.5 ± 4.5 mM | Km (RLM GDH1; pH 7.2, MWC equation, with ADP): 18 ± 11 mM | K0.5 NH4+ (RLM GDH1; pH 7.5, 37°C): 18.2 ± 5.9 mM | nH (Hill coefficient) for NH4+ (RLM GDH1; pH 7.5, Hill equation): 1.4 ± 0.4 | Km (RLM GDH1; [6]): 5.6 ± 3.6 mM | Km (RLM GDH1; pH 7.5, MWC equation, with ADP): 8.8 ± 4.1 mM
